Experiments:
[1] = target: MNK2a (pre-activated GST-MNK2a) (Homo sapiens (Human), UniProt Q9HBH9); assay: MNK2a in vitro kinase assay (assay 1), ADP-Glo; type: biochemical; conditions: read-out: Mnk2 IC50
Procedure: A. MNK2a In Vitro Kinase Assay (Assay 1)
The inhibition of kinase activity of MNK2a was assessed using pre-activated GST-MNK2a. The white, 384-well OptiPlate F plates were purchased from PerkinElmer. The ADP-Glo Kinase Assay (including ultra pure ATP) was purchased from Promega (V9103). Activated MNK2a was obtained as described in WO2011/104340. […] ID No. 5 of WO 2011/104340 by the C-terminal —CONH2 group, was purchased from Thermo Fisher Scientific. All other materials were of highest grade commercially available. Compounds are tested in either serial dilutions or single dose concentrations. The compound stock solutions are 10 mM in 100% DMSO The serial compound dilutions are prepared in 100% DMSO followed by 1:27.3 intermediate dilution in assay buffer. The final DMSO concentration in assay will be <3%.
In the 384-well plates 3 μl of test compound from the intermediate dilution is mixed with 4 μl of the activated MNK2 enzyme (final concentration of 10 nM) and 4 μl of the peptide (final concentration of 25 μM)/ultra pure ATP (final concentration of 20 μM), all dissolved in assay buffer. This step is followed by an incubation time of 90 min, then 10 μl of ADP Glo reagent are added, followed by 40 min of incubation. Then 20 μl of kinase detection reagent are admixed. The plates are sealed and after an incubation period of 30 min, the luminescence signal is measured in an Envision reader to determine the amount of produced ADP. All incubation steps are performed at room temperature.
The assay buffer consists of 20 mM HEPES, 2 mM DTT, 0.01% BSA, 20 mM MgCl2 and 0.1% Pluronic F-127.
The luminescent signal generated is proportional to the ADP concentration produced and is correlated with activated MNK2 activity. The analysis of the data is performed by the calculation of the percentage of ATP consumption of activated MNK2 in the presence of the test compound compared to the consumption of ATP in the presence of activated MNK2 without compound. (RLU(sample)−RLU(low control))*100/(RLU(high value)−RLU(low control))
[RLU=Relative Luminescence Units]
Values of more than 100% CTL are normally related to compound/sample specific physico-chemical properties (e.g. solubility, light absorbance, fluorescence).
IC50 values based on dose response curves are calculated with the AssayExplorer software.

[2] = target: MNK1a (pre-activated GST-MNK1a) (Homo sapiens (Human), UniProt Q9BUB5); assay: MNK1 in vitro kinase assay (assay 2), Z'-LYTE; type: biochemical; conditions: for inhibition at 1 µM: compound concentration of 1 μM, read-out: Mnk1 % Inh
Source text: B. MNK1 In Vitro Kinase Assay (Assay 2)
MNK1 Data can be obtained from the MNK1 Z′-LYTE® assay. The MNK1 Z′-LYTE® screening protocol and assay conditions are also described on www.invitrogen.com.
The assay is described as follows:
The Z′-LYTE® biochemical assay employs a fluorescence-based, coupled-enzyme format and is based on the differential sensitivity of phosphorylated and non-phosphorylated peptides to proteolytic cleavage. The peptide substrate is labeled with two fluorophores—one at each end—that make up a FRET pair.
In the primary reaction, the kinase transfers the gamma-phosphate of ATP to a single tyrosine, serine or threonine residue in a synthetic FRET-peptide. In the secondary reaction, a site-specific protease recognizes and cleaves non-phosphorylated FRET-peptides. Phosphorylation of FRET-peptides suppresses cleavage by the Development Reagent. Cleavage disrupts FRET between the donor (i.e., coumarin) and acceptor (i.e., fluorescein) fluorophores on the FRET-peptide, whereas uncleaved, phosphorylated FRET-peptides maintain FRET. A ratiometric method, which calculates the ratio (the Emission Ratio) of donor emission to acceptor emission after excitation of the donor fluorophore at 400 nm, is used to quantitate reaction progress, as shown in the equation below. Emission Ratio=Coumarin Emission(445 nm)/Fluorescein Emission(520 nm)
The inhibition of kinase activity of MNK1a was assessed using pre-activated GST-MNK1a. The 2×MKNK1 (MNK1) mixture is prepared in 50 mM HEPES pH 7.5, 0.01% BRIJ-35, 10 mM MgCl2, 4 mM MnCl2, 1 mM EGTA, 2 mM DTT. The final 10 μL Kinase Reaction consists of 13.5-54 ng MKNK1 (MNK1) and 2 μM Ser/Thr 07 in 50 mM HEPES pH 7.5, 0.01% BRIJ-35, 10 mM MgCl2, 2 mM MnCl2, 1 mM EGTA, 1 mM DTT. After the 1 hour Kinase Reaction incubation, 5 μL of a 1:32768 dilution of Development Reagent A is added.
The Test Compounds are screened in 1% DMSO (final) in the well.
All Peptide/Kinase Mixtures are diluted to a 2×working concentration in the MNK1 Kinase Buffer.
All ATP Solutions are diluted to a 4×working concentration in Kinase Buffer (50 mM HEPES pH 7.5, 0.01% BRIJ-35, 10 mM MgCl2, 1 mM EGTA).
Development Reagent Solution:
The Development Reagent is diluted in Development Buffer
Bar-coded Corning, low volume NBS, 384-well plate (Corning Cat. #3676)
1. 2.5 μL—4×Test Compound
2. 5 μL—2×Peptide/Kinase Mixture
5. 60-minute Kinase Reaction incubation at room temperature
6. 5 μL—Development Reagent Solution
8. 60-minute Development Reaction incubation at room temperature
9. Read on fluorescence plate reader and analyze the data
The following equations are used for each set of data points:
Correction for Background Fluorescence: FISample−FITCFI Ctl Emission Ratio (using values corrected for background fluorescence):Coumarin Emission (445 nm)/Fluorescein Emission (520 nm)
% Phosphorylation (% Phos): 1−((Emission Ratio×F100%)−C100%)/((C0%−C100%)+[Emission Ratio×(F100%−F0%)])*100
% Inhibition: 1−(% PhosSample/% Phos0% Inhibition Ctl)*100 FI=Fluorescence Intensity C100%=Average Coumarin emission signal of the 100% Phos. Control C0%=Average Coumarin emission signal of the 0% Phos. Control F100%=Average Fluorescein emission signal of the 100% Phos. Control F0%=Average Fluorescein emission signal of the 0% Phos. Control
SelectScreen® Kinase Profiling Service uses XLfit from IDBS. The dose response curve is curve fit to model number 205 (sigmoidal dose-response model).

Sequence of MNK1a (pre-activated GST-MNK1a) (Q9BUB5 other isoform, or with tags, fused parts or gaps): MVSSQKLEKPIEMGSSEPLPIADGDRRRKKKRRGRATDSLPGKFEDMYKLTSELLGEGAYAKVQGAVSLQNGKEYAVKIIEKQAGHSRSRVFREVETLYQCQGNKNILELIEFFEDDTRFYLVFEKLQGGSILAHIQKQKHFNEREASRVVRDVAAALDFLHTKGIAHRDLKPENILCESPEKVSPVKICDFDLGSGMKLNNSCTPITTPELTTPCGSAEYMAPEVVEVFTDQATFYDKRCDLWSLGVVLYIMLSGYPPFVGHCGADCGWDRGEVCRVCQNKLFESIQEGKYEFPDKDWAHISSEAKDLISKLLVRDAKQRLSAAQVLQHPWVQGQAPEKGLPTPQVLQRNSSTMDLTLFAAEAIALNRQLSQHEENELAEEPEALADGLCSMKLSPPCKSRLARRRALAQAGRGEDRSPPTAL
Sequence of MNK2a (pre-activated GST-MNK2a) (Q9HBH9 whole entry): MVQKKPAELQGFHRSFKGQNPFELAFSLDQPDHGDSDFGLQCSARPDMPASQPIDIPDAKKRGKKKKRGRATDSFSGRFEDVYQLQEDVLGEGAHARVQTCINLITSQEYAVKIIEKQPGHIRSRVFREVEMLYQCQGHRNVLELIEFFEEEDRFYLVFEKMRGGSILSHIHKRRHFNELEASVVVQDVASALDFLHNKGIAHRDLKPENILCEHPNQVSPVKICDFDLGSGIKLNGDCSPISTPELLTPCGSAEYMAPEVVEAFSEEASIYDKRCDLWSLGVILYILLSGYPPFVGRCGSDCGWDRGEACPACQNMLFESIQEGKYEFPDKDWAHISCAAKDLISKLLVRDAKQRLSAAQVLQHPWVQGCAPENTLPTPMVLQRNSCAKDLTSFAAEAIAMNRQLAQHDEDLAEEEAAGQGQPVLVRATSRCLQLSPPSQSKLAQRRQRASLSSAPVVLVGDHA

Row | IC50 [1] | IC50 [2] | inhibition at 1 µM [2] | SMILES
1 | 2.4 nM | 51 nM | – | Cc1c(OCCCN2CCCC2)c(N=S(C)(C)=O)cc2ncnc(Nc3ccc(F)cc3O[C@H](C)C(F)(F)F)c12 [Example 1.02]
2 | 1.6 nM | 54 nM | – | CCOc1c(N=S(C)(C)=O)cc2ncnc(Nc3ccc(F)cc3O[C@H](C)C(F)(F)F)c2c1C [Example 1.03]
3 | 2.5 nM | – | 103% | COc1c(N=S2(=O)CC(OC)C2)cc2ncnc(Nc3ccc(F)cc3O[C@H](C)C(=O)NCC(F)(F)F)c2c1C (some centres unmarked) [Example 2.01]
4 | 1.2 nM | – | 105% | COc1c(N=S2(=O)CCCC2)cc2ncnc(Nc3ccc(F)cc3O[C@@H]3CO[C@@H]4CCO[C@@H]43)c2c1C [Example 2.03]
5 | 1.2 nM | – | 105% | COc1c(N=S2(=O)CCC(O)CC2)cc2ncnc(Nc3ccc(F)cc3O[C@@H]3CO[C@@H]4CCO[C@@H]43)c2c1C (some centres unmarked) [Example 2.04]
6 | 2.5 nM | – | 106% | COc1c(N=S2(=O)CCCC2)cc2ncnc(Nc3ccc(F)cc3O[C@H](C)C(=O)N[C@@H](C)C(F)(F)F)c2c1C [Example 2.05]
7 | 1.2 nM | 18 nM | – | COc1c(N=S2(=O)CCC2)cc2ncnc(Nc3ccc(F)cc3O[C@@H]3CO[C@H]4[C@@H]3OC[C@H]4O)c2c1C [Example 2.06]
8 | 2.7 nM | – | – | COc1c(N=S2(=O)CCC2)cc2ncnc(Nc3ccc(F)cc3O[C@H]3COC[C@@H]3O)c2c1C [Example 2.07]
9 | 1.4 nM | – | 107% | COc1c(N=S2(=O)CCCCC2)cc2ncnc(Nc3ccc(F)cc3O[C@@H]3CO[C@@H]4CCO[C@@H]43)c2c1C [Example 2.08]
10 | 1.8 nM | 14 nM | – | COc1c(N=S2(=O)CCCC2)cc2ncnc(Nc3ccc(F)cc3O[C@@H]3CO[C@H]4[C@@H]3OC[C@H]4O)c2c1C [Example 2.09]
11 | 1.9 nM | 56 nM | – | COc1c(N=S2(=O)CCC2)cc2ncnc(Nc3ccc(F)cc3O[C@H](C)C(=O)NCC(F)(F)F)c2c1C [Example 2.11]
12 | 1.4 nM | 42 nM | – | Cc1c(OCCCN2CCOCC2)c(N=S2(=O)CCC2)cc2ncnc(Nc3ccc(F)cc3O[C@H](C)C(F)(F)F)c12 [Example 2.15]
13 | 3.5 nM | – | 102% | COc1c(N=S(C)(C)=O)cc2ncnc(Nc3ccc(F)cc3O[C@H](C)C(F)(F)F)c2c1C [Example 2.16]
14 | 2.1 nM | – | 94% | COc1c(N=S2(=O)CCOCC2)cc2ncnc(Nc3ccc(F)cc3O[C@@H]3CO[C@@H]4CCO[C@@H]43)c2c1C [Example 2.17]
15 | 1.3 nM | – | 95% | COc1c(N=S2(=O)CCC2)cc2ncnc(Nc3ccc(F)cc3O[C@@H]3CO[C@H]4[C@@H]3OC[C@H]4OC)c2c1Cl [Example 2.18]
16 | 4.4 nM | – | 100% | COc1c(N=S(C)(C)=O)cc2ncnc(Nc3ccc(F)cc3O[C@H](C)C(=O)NCC(F)(F)F)c2c1C [Example 2.24]
17 | 1 nM | 64 nM | – | COc1c(N=S2(=O)CCC2)cc2ncnc(Nc3ccc(F)cc3O[C@@H]3CO[C@H]4[C@@H]3OC[C@@H]4F)c2c1C [Example 2.26]

More lines, now with the values behind:

Row | SMILES | IC50 [1] | IC50 [2] | inhibition at 1 µM [2]
18 | Cc1c(OCCCN2CCN(C)C(=O)C2)c(N=S(C)(C)=O)cc2ncnc(Nc3ccc(F)cc3O[C@H](C)C(F)(F)F)c12 [Example 1.01] | 5.5 nM | 162 nM | –
19 | Cc1c(OCCN2CCOCC2)c(N=S(C)(C)=O)cc2ncnc(Nc3ccc(F)cc3O[C@H](C)C(F)(F)F)c12 [Example 1.04] | 2.4 nM | – | –
20 | COc1c(N=S(C)(C)=O)cc2ncnc(Nc3ccc(F)cc3O[C@@H]3CO[C@H]4[C@@H]3OC[C@@H]4F)c2c1C [Example 2.02] | 12.6 nM | 25 nM | –
21 | COc1c(N=S2(=O)CCCC2)cc2ncnc(Nc3cccnc3O[C@@H]3CO[C@@H]4CCO[C@@H]43)c2c1C [Example 2.10] | 3.3 nM | – | 96%
22 | COc1c(N=S(C)(=O)C2CCOCC2)cc2ncnc(Nc3ccc(F)cc3O[C@@H]3CO[C@@H]4CCO[C@@H]43)c2c1C (some centres unmarked) [Example 2.12] | 2.3 nM | – | 95%
23 | COc1c(N=S(C)(C)=O)cc2ncnc(Nc3ccc(F)cc3O[C@@H]3CO[C@H]4[C@@H]3OC[C@H]4O)c2c1C [Example 2.13] | 1.7 nM | – | 103%
24 | COc1c(N=S(C)(C)=O)cc2ncnc(Nc3ccc(F)cc3OC3CCOCC3)c2c1C [Example 2.14] | 3.7 nM | – | 98%
25 | COc1c(N=S(C)(=O)C(C)(C)C)cc2ncnc(Nc3ccc(F)cc3O[C@@H]3CO[C@@H]4CCO[C@@H]43)c2c1C (some centres unmarked) [Example 2.19] | 2.8 nM | – | 102%
26 | COc1c(N=S(C)(C)=O)cc2ncnc(Nc3cc4cn[nH]c4cc3OC(C)C)c2c1C [Example 2.20] | 3.8 nM | 57 nM | –
27 | COc1c(N=S2(=O)CCC2)cc2ncnc(Nc3cccnc3O[C@@H]3CO[C@@H]4CCO[C@@H]43)c2c1C [Example 2.21] | 1.9 nM | 33 nM | –
28 | COc1c(N=S(C)(C)=O)cc2ncnc(Nc3ccc(F)cc3O[C@H]3CC[C@H](O)CC3)c2c1C [Example 2.22] | 2.5 nM | – | 98%
29 | COc1c(N=S(C)(=O)CCO)cc2ncnc(Nc3ccc(F)cc3O[C@@H]3CO[C@@H]4CCO[C@@H]43)c2c1C (some centres unmarked) [Example 2.23] | 2 nM | – | 105%
30 | COc1c(N=S(C)(C)=O)cc2ncnc(Nc3ccc(F)cc3O[C@@H]3CO[C@@H]4CCO[C@@H]43)c2c1C [Example 2.25] | 0.8 nM | 18 nM | –
31 | COc1c(N=S(C)(C)=O)cc2ncnc(Nc3ccc(F)cc3O[C@@H]3CO[C@H]4[C@@H]3OC[C@H]4OC)c2c1Cl [Example 2.28] | 2.2 nM | – | –

Source: US10167296B2, “Sulfoximine substituted quinazolines for pharmaceutical compositions” (EVOTEC INTERNATIONAL GMBH, priority 2014, dated 2019)
